Patent US7244431B2, “Allergy vaccines and their preparation” (priority 2000, dated 2007)

Legend:
[1] = test system: birch pollen allergic patients; assay: Skin prick testing of allergic patients; assay type: in vivo, human
Experimental: SPTs were performed on the individuals forearms as described ([…]. et al. (1997) J. Clin Invest. 99, 1673-168; Dreborg S: (1989) J. Am. Acad. DerMatol. 21, 820-821). […] In addition standardized skin prick solutions (birch pollen extract and histamine) (Allergopharma, Reinbek, Germany) were tested. Reactions were recorded 20 minutes after SPT by photography and by transferring the ballpoint pen-surrounded wheal area with a scotch tape to paper.

[2] = test system: IgE antibodies in sera from birch pollen allergic patients; assay: ELISA detection of peptide- and rBet v 1-specific IgE antibodies; assay type: binding, human
Experimental: Birch pollen allergic patients suffering from allergic rhinoconjunctivitis and/or asthma to birch pollen and related allergens were selected according to case history indicative for seasonal birch pollinosis and characterized by skin prick testing with birch pollen extract and serological CAP RAST (Pharmacia Diagnostics, Uppsala, Sweden) testing. Total IgE levels in the sera were determined by CAP RIST measurements (Pharmacia). […] Sera from 60 birch pollen allergic patients and a non-atopic individual were used for IgE competition studies. The birch pollen allergic patients group consisted of 25 males and 35 females with a mean age of 37 years (ranging from 19-60 years) (Table 2).
Subsequently, plates were incubated with 1:3 diluted sera from 60 birch pollen allergic patients and from a non-atopic individual overnight at 4° C. Bound IgE antibodies were detected with a 1:1000 diluted alkaline-phosphatase-coupled mouse monoclonal anti-human IgE antibody (Pharmingen, San Diego, Calif.).

Molecule: NCCc1c[nH]cn1 [histamine, reference compound]
- mean wheal diameter ([1]; individual 1, standardized skin prick solution): 5 mm
- mean wheal diameter ([1]; individual 2, standardized skin prick solution): 6 mm
- mean wheal diameter ([1]; individual 3, standardized skin prick solution): 7 mm
- mean wheal diameter ([1]; individual 4, standardized skin prick solution): 5 mm
- mean wheal diameter ([1]; individual 5, standardized skin prick solution): 5.5 mm
- mean wheal diameter ([1]; individual 6 (without birch pollen allergy), standardized skin prick solution): 4 mm
- immediate skin reaction ([1]; standardized skin prick solutions): All individuals reacted

Molecule: CGPGTIKKISFPEGFPFKYVKDRVDEVDHTN [Peptide P3, Bet v 1-derived synthetic peptide, position aa 50-79, one cysteine added]
- IgE (OD) ([2]; serum of NHS, non-allergic control individual): — (Dashes indicate reactivities below the cut-off level (OD=0.050))
- IgE (OD) ([2]; serum of patient 1): — (Dashes indicate reactivities below the cut-off level (OD=0.050))
- IgE (OD) ([2]; serum of patient 2): — (Dashes indicate reactivities below the cut-off level (OD=0.050))
- IgE (OD) ([2]; serum of patient 3): — (Dashes indicate reactivities below the cut-off level (OD=0.050))
- IgE (OD) ([2]; serum of patient 4): — (Dashes indicate reactivities below the cut-off level (OD=0.050))
- IgE (OD) ([2]; serum of patient 5): — (Dashes indicate reactivities below the cut-off level (OD=0.050))
- IgE (OD) ([2]; serum of patient 6): — (Dashes indicate reactivities below the cut-off level (OD=0.050))
- IgE (OD) ([2]; serum of patient 7): — (Dashes indicate reactivities below the cut-off level (OD=0.050))
- IgE (OD) ([2]; serum of patient 8): — (Dashes indicate reactivities below the cut-off level (OD=0.050))
- IgE (OD) ([2]; serum of patient 9): — (Dashes indicate reactivities below the cut-off level (OD=0.050))
- IgE (OD) ([2]; serum of patient 10): — (Dashes indicate reactivities below the cut-off level (OD=0.050))
- IgE (OD) ([2]; serum of patient 11): — (Dashes indicate reactivities below the cut-off level (OD=0.050))
- IgE (OD) ([2]; serum of patient 12): — (Dashes indicate reactivities below the cut-off level (OD=0.050))
- IgE (OD) ([2]; serum of patient 13): — (Dashes indicate reactivities below the cut-off level (OD=0.050))
- IgE (OD) ([2]; serum of patient 14): — (Dashes indicate reactivities below the cut-off level (OD=0.050))
- IgE (OD) ([2]; serum of patient 15): — (Dashes indicate reactivities below the cut-off level (OD=0.050))
- IgE (OD) ([2]; serum of patient 16): — (Dashes indicate reactivities below the cut-off level (OD=0.050))
- IgE (OD) ([2]; serum of patient 17): — (Dashes indicate reactivities below the cut-off level (OD=0.050))
- IgE (OD) ([2]; serum of patient 18): — (Dashes indicate reactivities below the cut-off level (OD=0.050))
- IgE (OD) ([2]; serum of patient 19): — (Dashes indicate reactivities below the cut-off level (OD=0.050))
- IgE (OD) ([2]; serum of patient 20): — (Dashes indicate reactivities below the cut-off level (OD=0.050))
- IgE (OD) ([2]; serum of patient 21): — (Dashes indicate reactivities below the cut-off level (OD=0.050))
- IgE (OD) ([2]; serum of patient 22): — (Dashes indicate reactivities below the cut-off level (OD=0.050))
- IgE (OD) ([2]; serum of patient 23): — (Dashes indicate reactivities below the cut-off level (OD=0.050))
- IgE (OD) ([2]; serum of patient 24): — (Dashes indicate reactivities below the cut-off level (OD=0.050))
- IgE (OD) ([2]; serum of patient 25): — (Dashes indicate reactivities below the cut-off level (OD=0.050))
- IgE (OD) ([2]; serum of patient 26): — (Dashes indicate reactivities below the cut-off level (OD=0.050))
- IgE (OD) ([2]; serum of patient 27): — (Dashes indicate reactivities below the cut-off level (OD=0.050))
- IgE (OD) ([2]; serum of patient 28): — (Dashes indicate reactivities below the cut-off level (OD=0.050))
- IgE (OD) ([2]; serum of patient 29): — (Dashes indicate reactivities below the cut-off level (OD=0.050))
- IgE (OD) ([2]; serum of patient 30): — (Dashes indicate reactivities below the cut-off level (OD=0.050))
- IgE (OD) ([2]; serum of patient 31): — (Dashes indicate reactivities below the cut-off level (OD=0.050))
- IgE (OD) ([2]; serum of patient 32): — (Dashes indicate reactivities below the cut-off level (OD=0.050))
- IgE (OD) ([2]; serum of patient 33): — (Dashes indicate reactivities below the cut-off level (OD=0.050))
- IgE (OD) ([2]; serum of patient 34): — (Dashes indicate reactivities below the cut-off level (OD=0.050))
- IgE (OD) ([2]; serum of patient 35): — (Dashes indicate reactivities below the cut-off level (OD=0.050))
- IgE (OD) ([2]; serum of patient 36): — (Dashes indicate reactivities below the cut-off level (OD=0.050))
- IgE (OD) ([2]; serum of patient 37): — (Dashes indicate reactivities below the cut-off level (OD=0.050))
- IgE (OD) ([2]; serum of patient 38): — (Dashes indicate reactivities below the cut-off level (OD=0.050))
- IgE (OD) ([2]; serum of patient 39): — (Dashes indicate reactivities below the cut-off level (OD=0.050))
- IgE (OD) ([2]; serum of patient 40): — (Dashes indicate reactivities below the cut-off level (OD=0.050))
- IgE (OD) ([2]; serum of patient 41): — (Dashes indicate reactivities below the cut-off level (OD=0.050))
- IgE (OD) ([2]; serum of patient 42): — (Dashes indicate reactivities below the cut-off level (OD=0.050))
- IgE (OD) ([2]; serum of patient 43): — (Dashes indicate reactivities below the cut-off level (OD=0.050))
- IgE (OD) ([2]; serum of patient 44): — (Dashes indicate reactivities below the cut-off level (OD=0.050))
- IgE (OD) ([2]; serum of patient 45): — (Dashes indicate reactivities below the cut-off level (OD=0.050))
- IgE (OD) ([2]; serum of patient 46): — (Dashes indicate reactivities below the cut-off level (OD=0.050))
- IgE (OD) ([2]; serum of patient 47): — (Dashes indicate reactivities below the cut-off level (OD=0.050))
- IgE (OD) ([2]; serum of patient 48): — (Dashes indicate reactivities below the cut-off level (OD=0.050))
- IgE (OD) ([2]; serum of patient 49): — (Dashes indicate reactivities below the cut-off level (OD=0.050))
- IgE (OD) ([2]; serum of patient 50): — (Dashes indicate reactivities below the cut-off level (OD=0.050))
- IgE (OD) ([2]; serum of patient 51): — (Dashes indicate reactivities below the cut-off level (OD=0.050))
- IgE (OD) ([2]; serum of patient 52): — (Dashes indicate reactivities below the cut-off level (OD=0.050))
- IgE (OD) ([2]; serum of patient 53): — (Dashes indicate reactivities below the cut-off level (OD=0.050))
- IgE (OD) ([2]; serum of patient 54): — (Dashes indicate reactivities below the cut-off level (OD=0.050))
- IgE (OD) ([2]; serum of patient 55): — (Dashes indicate reactivities below the cut-off level (OD=0.050))
- IgE (OD) ([2]; serum of patient 56): — (Dashes indicate reactivities below the cut-off level (OD=0.050))
- IgE (OD) ([2]; serum of patient 57): — (Dashes indicate reactivities below the cut-off level (OD=0.050))
- IgE (OD) ([2]; serum of patient 58): — (Dashes indicate reactivities below the cut-off level (OD=0.050))
- IgE (OD) ([2]; serum of patient 59): — (Dashes indicate reactivities below the cut-off level (OD=0.050))
- IgE (OD) ([2]; serum of patient 60): — (Dashes indicate reactivities below the cut-off level (OD=0.050))
- mean wheal diameter ([1]; individual 1, 100 μg/ml): 0 mm
- mean wheal diameter ([1]; individual 2, 100 μg/ml): 0 mm
- mean wheal diameter ([1]; individual 3, 100 μg/ml): 0 mm
- mean wheal diameter ([1]; individual 4, 100 μg/ml): 0 mm
- mean wheal diameter ([1]; individual 5, 100 μg/ml): 0 mm
- mean wheal diameter ([1]; individual 6 (allergic, without birch pollen allergy), 100 μg/ml): 0 mm
